The results in this text go back to EP4273147A1, “SUBSTITUTED SPIROLACTAMS, SALTS THEREOF AND THEIR USE AS HERBICIDALLY ACTIVE SUBSTANCES” (Bayer Aktiengesellschaft, priority 2022, dated 2023).

SMILES strings stand for the structures.

The subject of series [1] is LOLRI. Description: Herbicidal pre-emergence action, section C (Table C7). The format is in vivo, Lolium rigidum. To be noted: application rate 320 g/ha; visual grading after ca. 3 weeks.
The test system of series [2] is TRZAS. Description: Post-emergence effects on crop plants (Table F2). The format is in vivo, Triticum aestivum. Conditions: application rate 320 g/ha, crop plant TRZAS. The source says:
(§1) 2 to 3 weeks after sowing, the test plants were sprayed in the single-leaf stage.

The test system of series [3] is DIGSA. Put plainly: Herbicidal pre-emergence action, section C (Table C5). To be noted: application rate 320 g/ha; visual grading after ca. 3 weeks. The format is in vivo, Digitaria sanguinalis.
For another series, the system named is STEME. Description: Herbicidal pre-emergence action (Table A6). To be noted: visual grading after ca. 3 weeks. The format is in vivo, Stellaria media. The source says: (§2) Seeds of mono- and dicotyledonous weed plants were sown in plastic pots (double sowings with one species of mono- and one species of dicotyledonous weed plants per pot), in sandy loam, and covered with soil.

Another series relates to VIOTR. Description: Herbicidal pre-emergence action, section C (Table C12). The format is in vivo, Viola tricolor. Conditions: application rate 80 g/ha; visual grading after ca. 3 weeks.
Series [4] concerns POAAN. Description: Herbicidal post-emergence action (Table B7). The format is in vivo, Poa annua. To be noted: application rate 1280 g/ha. Here is the method: (§3) Seeds of mono- and dicotyledonous weed plants were placed in plastic pots in sandy loam soil (doubly sown with in each case one species of mono- or dicotyledonous weed plants per pot), covered with soil and cultivated in a greenhouse under controlled growth conditions. 2 to 3 weeks after sowing, the test plants were treated at the one-leaf stage. […] After the test plants had been kept in the greenhouse under optimum growth conditions for about 3 weeks, the activity of the preparations was rated visually in comparison to untreated controls. For example, 100% activity = the plants have died, 0% activity = like control plants.

The subject of series [5] is ORYZA. Description: Post-emergence effects on crop plants (Table F3). The format is in vivo, Oryza sativa. Conditions: application rate 320 g/ha, crop plant ORYZA.
Source text: as §1

For the next series, the system named is MATIN. Description: Herbicidal pre-emergence action (Table A4). The format is in vivo, Matricaria inodora. Conditions: application rate 1280 g/ha; visual grading after ca. 3 weeks.
Source text: as §2

Series [6] concerns ZEAMX. Put plainly: Post-emergence effects on crop plants (Table F1). The format is in vivo, Zea mays. Conditions: application rate 320 g/ha, crop plant ZEAMX.
Source text: as §1

The test system of series [7] is ECHCG. Description: Herbicidal post-emergence action (Table B3). The format is in vivo, Echinochloa crus-galli. To be noted: application rate 1280 g/ha; rated visually after about 3 weeks. Here is the method:
as §3

Series [8] has as its system BRSNW. Description: Post-emergence effects on crop plants (Table F5). The format is in vivo, Brassica napus. To be noted: crop plant BRSNW.
Source text: as §1

Series [9] concerns POAAN. Put plainly: Herbicidal pre-emergence action (Table A7). The format is in vivo, Poa annua. To be noted: application rate 320 g/ha; visual grading after ca. 3 weeks.
Source text: as §2

In series [10] the test system is ORYZA. Description: Pre-emergence effects on crop plants (Table D3). To be noted: crop plant, visual grading after ca. 3 weeks.
Source text: (§4) Seeds of mono- and dicotyledonous weed plants and crop plants were sown, in plastic or organic planting pots, in sandy loam and covered with soil. The compounds according to the invention, formulated in the form of wettable powders (WP) or as emulsifiable concentrates (EC), were applied to the surface of the covering soil as aqueous suspension or emulsion, with the addition of 0.5% of an additive, at an application rate of 600 1 of water/ha (converted).
(§5) Following treatment, the pots were placed in a greenhouse and kept under optimum growth conditions for the test plants.
Series [11] concerns TRZAS. Description: Pre-emergence effects on crop plants (Table D2). The format is in vivo, Triticum aestivum. To be noted: crop plant, visual grading after ca. 3 weeks.
Source text: as §4, §5
The subject of another series is GLXMA. Description: Pre-emergence effects on crop plants (Table D4). The format is in vivo, Glycine max. To be noted: crop plant, visual grading after ca. 3 weeks.
Series [12] relates to ECHCG. Put plainly: Herbicidal pre-emergence action, section C (Table C6). The format is in vivo, Echinochloa crus-galli. Conditions: visual grading after ca. 3 weeks.
In series [13] the test system is ALOMY. Description: Herbicidal pre-emergence action (Table A9). The format is in vivo, Alopecurus myosuroides. To be noted: application rate 1280 g/ha; visual grading after ca. 3 weeks.
Source text: as §2

Series [14] relates to VERPE. Put plainly: Herbicidal pre-emergence action, section C (Table C11). The format is in vivo, Veronica persica. Conditions: application rate 320 g/ha; visual grading after ca. 3 weeks.
Source text: Seeds of mono- and dicotyledonous weed plants and crop plants were sown, in plastic or organic planting pots, in sandy loam and covered with soil. The compounds according to the invention, formulated in the form of wettable powders (WP) or as emulsifiable concentrates (EC), were applied to the surface of the covering soil as aqueous suspension or emulsion, with the addition of 0.5% of an additive, at an application rate of 600 1 of water/ha (converted). Following treatment, the pots were placed in a greenhouse and kept under optimum growth conditions for the test plants.
The subject of series [15] is ECHCG. Description: Herbicidal pre-emergence action (Table A2). The format is in vivo, Echinochloa crus-galli. Conditions: application rate 320 g/ha; visual grading after ca. 3 weeks.
Source text: as §2

For series [16], the system named is SETVI. Put plainly: Herbicidal pre-emergence action (Table A5). Conditions: visual grading after ca. 3 weeks. The format is in vivo, Setaria viridis.
Source text: as §2

Series [17] deals with ZEAMX. Put plainly: Pre-emergence effects on crop plants (Table D1). The format is in vivo, Zea mays. To be noted: crop plant, visual grading after ca. 3 weeks.
In series [18] the test system is LOLRI. Put plainly: Herbicidal pre-emergence action (Table A3). The format is in vivo, Lolium rigidum. To be noted: visual grading after ca. 3 weeks.
Source text: as §2

Series [19] has as its system SETVI. Put plainly: Herbicidal pre-emergence action, section C (Table C10). The format is in vivo, Setaria viridis. To be noted: visual grading after ca. 3 weeks.
Series [20] relates to VERPE. Put plainly: Herbicidal pre-emergence action (Table A11). Conditions: application rate 1280 g/ha; visual grading after ca. 3 weeks. The format is in vivo, Veronica persica.
Source text: as §2

Series [21] deals with ALOMY. Description: Herbicidal pre-emergence action, section C (Table C2). Conditions: application rate 320 g/ha; visual grading after ca. 3 weeks. The format is in vivo, Alopecurus myosuroides.
For series [22], the system named is DIGSA. Description: Herbicidal pre-emergence action (Table A12). Conditions: application rate 320 g/ha; visual grading after ca. 3 weeks. The format is in vivo, Digitaria sanguinalis.
Source text: as §2

The subject of series [23] is ECHCG. Description: Herbicidal post-emergence action, section E (Table E5). To be noted: application rate 320 g/ha; assessed visually after ca. 3 weeks. The format is in vivo, Echinochloa crus-galli.
Source text: as §1

Series [24] concerns BRSNW. Description: Pre-emergence effects on crop plants (Table D5). Conditions: crop plant; application rate 320 g/ha; visual grading after ca. 3 weeks. The format is in vivo, Brassica napus.

With `O=C1N(Cc2ccccc2F)CCCC12CCN(Cc1ccccc1Cl)C2=O` (racemic) [I-027], the figures for the “pre-emergence activity against LOLRI” value with LOLRI [1] and with LOLRI [18] (application rate 1280 g/ha) were 90% and 100%, respectively. The “post-emergence activity against TRZAS” value in the series on TRZAS [2] turned out to be 0%. Besides, the “pre-emergence activity against DIGSA” value in the series on DIGSA [3] is 100%; with DIGSA [22], 90%. In the series with STEME (application rate 1280 g/ha), the “pre-emergence activity against STEME” value is given as 90%. Further, the “pre-emergence activity against VIOTR” value with VIOTR is given as 90%. The “post-emergence activity against POAAN” value in the series with POAAN [4] was 90%. For the same molecule, the “post-emergence activity against ORYZA” value in the series with ORYZA [5] is 0%. In addition, the “pre-emergence activity against MATIN” value in the series on MATIN came to 90%. For the same molecule, in the series on ZEAMX [6], the “post-emergence activity against ZEAMX” value turned out to be 0%. For the same molecule, the “post-emergence activity against ECHCG” value in the series with ECHCG [7] was found to be 90%. Also, in the series on BRSNW [8] (application rate 80 g/ha), the “post-emergence activity against BRSNW” value was determined as 20%. Further, the “pre-emergence activity against POAAN” value with POAAN [9] was 100%. For the same molecule, the “pre-emergence activity against ORYZA” value in the series with ORYZA [10] (application rate 320 g/ha) came to 0%. Besides, in the series on TRZAS [11] (application rate 320 g/ha), the “pre-emergence activity against TRZAS” value turned out to be 0%. Besides, the “pre-emergence activity against GLXMA” value in the series on GLXMA (application rate 80 g/ha) amounted to 0%. The “pre-emergence activity against ECHCG” value in the series with ECHCG [12] (application rate 80 g/ha) and in the series on ECHCG [15] was 100% throughout. Also, the “pre-emergence activity against ALOMY” value stood at 90% in the series with ALOMY [13] and 100% in the series with ALOMY [21]. Further, the “pre-emergence activity against VERPE” value with VERPE [14] and with VERPE [20] was 90% in each case. Further, the “pre-emergence activity against SETVI” value with SETVI [16] (application rate 1280 g/ha) and with SETVI [19] (application rate 320 g/ha) was 100% in each case. Moreover, the “pre-emergence activity against ZEAMX” value in the series on ZEAMX [17] (application rate 320 g/ha) stood at 0%.
Turning to `Cc1ccccc1CN1CCCC2(CCCN(Cc3ccccc3F)C2=O)C1=O` (racemic) [I-044], in the series with TRZAS [2], the “post-emergence activity against TRZAS” value is recorded as 10%. Moreover, in the series with STEME (application rate 320 g/ha), the “pre-emergence activity against STEME” value worked out at 90%. For the same molecule, the “post-emergence activity against POAAN” value in the series on POAAN [4] is reported as 90%. In addition, the “post-emergence activity against ORYZA” value in the series on ORYZA [5] worked out at 0%. Further, in the series on MATIN, the “pre-emergence activity against MATIN” value was 100%. In addition, in the series on ZEAMX [6], the “post-emergence activity against ZEAMX” value is 0%. Also, the figures for the “post-emergence activity against ECHCG” value with ECHCG [7] and in the series with ECHCG [23] were 90% and 80%, respectively. In the series with BRSNW [8] (application rate 320 g/ha), the “post-emergence activity against BRSNW” value is 0%. In addition, the “pre-emergence activity against POAAN” value in the series on POAAN [9] is recorded as 90%. Moreover, the “pre-emergence activity against TRZAS” value in the series on TRZAS [11] (application rate 80 g/ha) is recorded as 0%. Further, the “pre-emergence activity against GLXMA” value in the series with GLXMA (application rate 320 g/ha) is listed as 0%. Moreover, the “pre-emergence activity against ECHCG” value with ECHCG [12] (application rate 320 g/ha) and in the series with ECHCG [15] was 100% each time. Also, the results for the “pre-emergence activity against ALOMY” value in the series with ALOMY [13] and in the series with ALOMY [21] were 90% and 80%, respectively. Further, the results for the “pre-emergence activity against SETVI” value with SETVI [16] (application rate 320 g/ha) and in the series with SETVI [19] (application rate 80 g/ha) were 90% and 100%, respectively. Further, in the series on ZEAMX [17] (application rate 80 g/ha), the “pre-emergence activity against ZEAMX” value was determined as 0%. In the series on LOLRI [18] (application rate 320 g/ha), the “pre-emergence activity against LOLRI” value amounted to 100%. In the series on BRSNW [24], the “pre-emergence activity against BRSNW” value stood at 0%.
`COc1ccccc1CN1CCCC2(CCCN(Cc3ccccc3F)C2=O)C1=O` (racemic) [I-061]: in the series on TRZAS [2], the “post-emergence activity against TRZAS” value is reported as 0%. Also, the “post-emergence activity against POAAN” value in the series with POAAN [4] turned out to be 90%. Also, the “post-emergence activity against ORYZA” value in the series with ORYZA [5] is reported as 0%. Besides, in the series with MATIN, the “pre-emergence activity against MATIN” value amounted to 90%. Further, the “post-emergence activity against ZEAMX” value in the series with ZEAMX [6] was 0%. Also, the “post-emergence activity against ECHCG” value worked out at 90% in the series with ECHCG [7] and 80% in the series on ECHCG [23]. Moreover, the “post-emergence activity against BRSNW” value with BRSNW [8] (application rate 320 g/ha) is reported as 0%. Moreover, the “pre-emergence activity against POAAN” value with POAAN [9] is recorded as 100%. For the same molecule, the “pre-emergence activity against ORYZA” value with ORYZA [10] (application rate 80 g/ha) stood at 0%. Moreover, in the series with GLXMA (application rate 320 g/ha), the “pre-emergence activity against GLXMA” value turned out to be 0%. The “pre-emergence activity against ECHCG” value in the series on ECHCG [12] (application rate 320 g/ha) and in the series on ECHCG [15] was 100% each time. Moreover, the figures for the “pre-emergence activity against ALOMY” value in the series with ALOMY [13] and in the series with ALOMY [21] were 90% and 80%, respectively. The “pre-emergence activity against SETVI” value in the series on SETVI [16] (application rate 320 g/ha) and with SETVI [19] (application rate 320 g/ha) was 100% each time. Also, the “pre-emergence activity against ZEAMX” value in the series with ZEAMX [17] (application rate 80 g/ha) came to 0%. In addition, the “pre-emergence activity against LOLRI” value in the series on LOLRI [18] (application rate 320 g/ha) turned out to be 100%. The “pre-emergence activity against BRSNW” value in the series on BRSNW [24] amounted to 0%.
